Results taken from patent US20080096251A1, “Invertebrate-Derived Gonadotropic Hormone and its Synthesis” (priority 2004, published 2008).

What was measured:
[1] = tested on: ovary of Asterina pectinifera; assay: gonad-stimulating activity: spawning of matured eggs from ovary fragments in a two-fold dilution series; format: cell-based; details: for EC50(nM) gonad-stimulating activity, Asterina pectinifera: Asterina pectinifera ovary piece in seawater, 25° C., spawning after 1 hr; for gonad-stimulating activity (in words): summary of Table 1, Asterina pectinifera
Method: (§1) Gonad-stimulating activity could be measured by the following methods:
(§2) Those individuals, whose eggs are highly sensitive to oocyte maturation-inducing hormone, are selected from matured invertebrate female individuals and are separated as test individuals.
(§3) Ovaries are excised from test individuals into seawater and are cut in small pieces. The assay plate for multiple test samples is filled with 200 μl seawater. Two μl of a test sample for gonad-stimulating activity is diluted to 200 folds by mixing with 398 μl seawater. The half portion (200 μl) is diluted to two fold by mixing with 200 μl seawater in the assay plate. The half portion (200 μl) is further diluted to two fold by mixing with 200 μl seawater in the assay plate. Repeating of the procedure results in preparation of two fold dilution series from 200-folds dilution to 102,400-folds dilution. A small piece of ovary is added to each dilution sample and is allowed to rest at 25° C. The gonad-stimulating activity is evaluated by spawning of matured eggs from a contracted small piece of ovary after 1 hr. The relative gonad-stimulating activity is assessed by the degree of dilution.
(§4) In the following Examples, gonad-stimulating activity are examined by the following way:
(§5) Two to three individuals bearing oocyte with high sensitivity of a gonadotropic hormone (1-methyladenine) are selected from several tens of female individuals of matured Asterina pectinifera (or Asterias amurensis) and are separated as test individuals.
(§6) The selection was performed in the following way:
(§7) The oocyte maturation-inducing hormone was diluted to 6 different concentrations, i.e. 10^−6 M, 3×10^−7 M, 10^−7 M, 3×10^−8 M, 10^−8 M, and 3×10^−9 M, in seawater, wherein small fragment of ovary was added to the different concentrations of maturation-inducing hormone and was allowed to stand for 60 min at room temperature. Maturation of oocyte was examined under microscope after 60 min to see whether the structure of nuclei in an oocyte was degraded to prepare for next fertilization. The concentration of the oocyte maturation-inducing hormone at maturation was checked and those individuals, which were matured at less than 10^−7 M, were used as test individuals.
as §3, with “(with tufted morphology) were removed” for “are excised”, “were” for “are”, “into about 5 mm fragments.” for “in small pieces.”, “hr (FIG. 1).” for “hr.”

[2] = tested on: ovary of Asterias amurensis; assay: as above; format: cell-based; details: Asterias amurensis ovary piece in seawater, 25° C., spawning after 1 hr
Method: as §1, §2, §3, §4, §5, §6, §7
as §3, with “(with tufted morphology) were removed” for “are excised”, “were” for “are”, “into about 5 mm fragments.” for “in small pieces.”, “hr (FIG. 1).” for “hr.”

| Sequence | EC50(nM) gonad-stimulating activity, Asterina pectinifera [1] | gonad-stimulating activity (in words) [1] | EC50(nM) gonad-stimulating activity, Asterias amurensis [2] |
| --- | --- | --- | --- |
| EKYCDDDFHMAVFRTCAVS [GSS-A, synthesized subunit peptide, 19 amino acid residues, molecular weight 2236] | No activity | did not show gonad-stimulating activity | No activity |
| SEYSGIASYCCLHGCTPSELSVVC [GSS-B] | No activity | did not show gonad-stimulating activity | No activity |
